Laboratory results reported in the Deep4Chem optical property database.

Test: solvent given as SMILES

Question: For `CC(C)(C)NC(=O)c1ccc(F)c2ccc3c4ccccc4c4ccccc4c3c12`, which absorption maximum (in ClCCl) is on record?
Answer: 334 nm

Question: Which absorption maximum (in C1CCOC1) does the source give for `CCCCCCCCN1c2ccc(C#Cc3cc(C(F)(F)F)cc(C(F)(F)F)c3)cc2Sc2cc(C=O)ccc21` here?
Answer: 382 nm

Question: And the absorption maximum (in CC#N)?
Answer: 386 nm

Question: What about the absorption maximum (in CCCCCC) of the same molecule?
Answer: 372 nm

Question: What about the absorption maximum (in CO) of the same molecule?
Answer: 366 nm

Question: And the absorption maximum (in CS(C)=O)?
Answer: 396 nm

Question: And the absorption maximum (in Cc1ccccc1)?
Answer: 381.01 nm

Question: And the absorption maximum (in ClC(Cl)Cl)?
Answer: 386 nm

Question: What does the source list for `Fc1c(F)c(F)c([B-]2(c3c(F)c(F)c(F)c(F)c3F)Oc3c(ccc4c5c(ccc34)C=[N+](c3ccccc3)[B-](c3c(F)c(F)c(F)c(F)c3F)(c3c(F)c(F)c(F)c(F)c3F)O5)C=[N+]2c2ccccc2)c(F)c1F`?
Answer: absorption maximum (in C1CCOC1): 522 nm; absorption maximum (in CC#N): 515 nm; absorption maximum (in CC(C)=O): 515 nm; absorption maximum (in Cc1ccccc1): 531 nm; absorption maximum (in ClCCl): 533 nm

Question: For `COc1ccc(C#Cc2cc3ccccc3oc2=O)cc1`, which absorption maximum (in CC#N) is on record?
Answer: 353 nm

Question: For `N#Cc1cccc(-c2nc(-c3ccccc3)c(-c3ccccc3)[nH]2)c1`, which absorption maximum (in CO) is on record?
Answer: 308 nm

Question: For `CCCCOc1c(-c2c(OCCCC)c3oc4cc5ccccc5cc4c3c3ccccc23)c2ccccc2c2c1oc1cc3ccccc3cc12`, which absorption maximum (in C1CCOC1) is on record?
Answer: 366 nm

Question: With `CCn1c2ccccc2c2c(C#N)c3c(ccc4c3cnn4C)nc21` as the molecule, how does the absorption maximum (in CCOC(C)=O) read?
Answer: 383 nm

Question: Which absorption maximum (in CC#N) does the source give for `CCN(CC)c1ccc(/C=N/C(C#N)=C(C#N)/N=C/c2ccc(N(CC)CC)cc2O)c(O)c1` here?
Answer: 565 nm

Question: What about the absorption maximum (in CN(C)C=O) of the same molecule?
Answer: 571 nm

Question: What about the absorption maximum (in ClCCl) of the same molecule?
Answer: 570 nm

Question: For `O=C1CC(=O)Nc2cc(Br)ccc2N1`, which absorption maximum (in CS(C)=O) is on record?
Answer: 299 nm

Question: With `CCC1=C(C)C2=Cc3c4ccccc4c4n3[B-](c3ccncc3)(Oc3ccccc3-4)[N+]2=C1C=Cc1ccc(OC)cc1` (stereo unspecified) as the molecule, how does the absorption maximum (in CC#N) read?
Answer: 690 nm

Question: And the absorption maximum (in CCCCCC)?
Answer: 698 nm

Question: And the absorption maximum (in Cc1ccccc1)?
Answer: 703 nm

Question: And the absorption maximum (in ClCCl)?
Answer: 699 nm

Question: With `CC1(C)c2ccccc2N(c2ccc(-c3nc(-c4ccccc4)cc(-c4ccccc4)n3)cc2)c2ccccc21` as the molecule, how does the absorption maximum (in Cc1ccccc1) read?
Answer: 366.6 nm

Question: For `c1ccc2c(c1)c1ccccc1n2-c1ccc(-c2ccn3nc(-c4ccc(-n5c6ccccc6c6ccccc65)cc4)nc3c2)cc1`, which absorption maximum (in C1CCOC1) is on record?
Answer: 342 nm

Question: With `CCCCCCCCCCCCCCCC[n+]1ccc(/C=C(\C)c2ccccc2)cc1` as the molecule, how does the absorption maximum (in C1COCCO1) read?
Answer: 387.4 nm

Question: What about the absorption maximum (in CC(C)=O) of the same molecule?
Answer: 383.2 nm

Question: And the absorption maximum (in CC(C)O)?
Answer: 385.4 nm

Question: And the absorption maximum (in CCCCCC)?
Answer: 398.5 nm

Question: And the absorption maximum (in CCCCO)?
Answer: 390.5 nm

Question: What about the absorption maximum (in CCCO) of the same molecule?
Answer: 398.5 nm

Question: What about the absorption maximum (in CCO) of the same molecule?
Answer: 399.5 nm

Question: What about the absorption maximum (in CN(C)C=O) of the same molecule?
Answer: 384.4 nm

Question: And the absorption maximum (in CO)?
Answer: 400.6 nm

Question: And the absorption maximum (in CS(C)=O)?
Answer: 384.6 nm

Question: And the absorption maximum (in Cc1ccccc1)?
Answer: 393.5 nm

Question: What about the absorption maximum (in ClC(Cl)(Cl)Cl) of the same molecule?
Answer: 399.5 nm

Question: And the absorption maximum (in ClC(Cl)Cl)?
Answer: 384 nm

Question: What about the absorption maximum (in ClCCl) of the same molecule?
Answer: 386.4 nm

Question: What about the absorption maximum (in c1ccccc1) of the same molecule?
Answer: 386.8 nm

Question: For `Cc1ccc(/C(C#N)=C/c2cc(/C=C(\C#N)c3ccc(C)cc3)c(-c3ccc(N(c4ccccc4)c4ccccc4)cc3)cc2-c2ccc(N(c3ccccc3)c3ccccc3)cc2)cc1`, which absorption maximum (in C1CCCCC1) is on record?
Answer: 385 nm

Question: And the absorption maximum (in C1CCOC1)?
Answer: 391 nm

Question: And the absorption maximum (in CCCCCC)?
Answer: 385 nm

Question: And the absorption maximum (in CCOC(C)=O)?
Answer: 393 nm

Question: What about the absorption maximum (in Cc1ccccc1) of the same molecule?
Answer: 391 nm

Question: What about the absorption maximum (in ClC(Cl)Cl) of the same molecule?
Answer: 385 nm

Question: And the absorption maximum (in ClCCl)?
Answer: 393 nm

Question: Which absorption maximum (in ClCCl) does the source give for `CCN(CC)c1ccc2c(-c3ccccc3C(=O)O)c3c([o+]c2c1)/C(=C/c1ccc(N2CCCC2)s1)CCC3` here?
Answer: 738 nm

Question: Which absorption maximum (in C1CCOC1) does the source give for `c1ccc(-c2cc(-c3ccc(-c4nc(-c5ccccn5)c(-c5ccccn5)[nH]4)cc3)cc(-c3ccccn3)n2)nc1` here?
Answer: 371 nm

Question: What about the absorption maximum (in CC#N) of the same molecule?
Answer: 380 nm

Question: And the absorption maximum (in CC(C)=O)?
Answer: 381 nm

Question: What about the absorption maximum (in CCO) of the same molecule?
Answer: 326 nm

Question: And the absorption maximum (in CCOC(C)=O)?
Answer: 360 nm

Question: What about the absorption maximum (in CN(C)C=O) of the same molecule?
Answer: 337 nm

Question: What about the absorption maximum (in CO) of the same molecule?
Answer: 321 nm

Question: And the absorption maximum (in CS(C)=O)?
Answer: 338 nm

Question: And the absorption maximum (in ClC(Cl)Cl)?
Answer: 408 nm

Question: What about the absorption maximum (in ClCCl) of the same molecule?
Answer: 388 nm

Question: For `CCCCCN1c2ccccc2Sc2cc(/C=C/c3ccc(/C=C(\C#N)C(=O)O)s3)ccc21`, which absorption maximum (in ClCCl) is on record?
Answer: 494 nm

Question: With `O=c1cc[nH]c(=O)[nH]1` as the molecule, how does the absorption maximum (in CC#N) read?
Answer: 256 nm

Question: What does the source list for `CN(C)c1ccc(C2=[N+]3C(=Nc4c(-c5ccc(O)cc5)cc(-c5ccc(N(C)C)cc5)n4[B-]3(F)F)C(c3ccc(O)cc3)=C2)cc1`?
Answer: absorption maximum (in C1CCOC1): 775 nm; absorption maximum (in CS(C)=O): 794 nm; absorption maximum (in Cc1ccccc1): 778 nm

Question: Which absorption maximum (in Cc1ccccc1) does the source give for `CC(C)(C)c1c2ccc3[nH]c4c(ccc5c(C(C)(C)C)c(ccc6[nH]c7c(ccc1c7n2)c6C(C)(C)C)nc54)c3C(C)(C)C` here?
Answer: 764 nm
